# Assay results as given in patent US11318208B2, “Synthetic compound” (Syntab Therapeutics GmbH, priority 2016, dated 2022).
# Square brackets hold non-standard residues; d marks the D form. Ends that are not written are not given here. * marks the point of attachment. Tyr(3-NO2) = N[C@@H](Cc1ccc(O)c([N+](=O)[O-])c1)C(=O)O; Hyp = O=C(O)[C@@H]1C[C@@H](O)CN1; For = O=C*
# Experiments:
# α3 Integrin [1] = target: T1, α3 Integrin (Homo sapiens, UniProt P05556+P26006); experiment: FACS analysis of cell binding, binder targeting α3 Integrin; settings: FIG. 8, 200 nM biotinylated binder, vs scrambled variant
# T1 construct: endogenous in cells; host or cells: A431
# T1 sequence (P26006 33-872 limits assumed): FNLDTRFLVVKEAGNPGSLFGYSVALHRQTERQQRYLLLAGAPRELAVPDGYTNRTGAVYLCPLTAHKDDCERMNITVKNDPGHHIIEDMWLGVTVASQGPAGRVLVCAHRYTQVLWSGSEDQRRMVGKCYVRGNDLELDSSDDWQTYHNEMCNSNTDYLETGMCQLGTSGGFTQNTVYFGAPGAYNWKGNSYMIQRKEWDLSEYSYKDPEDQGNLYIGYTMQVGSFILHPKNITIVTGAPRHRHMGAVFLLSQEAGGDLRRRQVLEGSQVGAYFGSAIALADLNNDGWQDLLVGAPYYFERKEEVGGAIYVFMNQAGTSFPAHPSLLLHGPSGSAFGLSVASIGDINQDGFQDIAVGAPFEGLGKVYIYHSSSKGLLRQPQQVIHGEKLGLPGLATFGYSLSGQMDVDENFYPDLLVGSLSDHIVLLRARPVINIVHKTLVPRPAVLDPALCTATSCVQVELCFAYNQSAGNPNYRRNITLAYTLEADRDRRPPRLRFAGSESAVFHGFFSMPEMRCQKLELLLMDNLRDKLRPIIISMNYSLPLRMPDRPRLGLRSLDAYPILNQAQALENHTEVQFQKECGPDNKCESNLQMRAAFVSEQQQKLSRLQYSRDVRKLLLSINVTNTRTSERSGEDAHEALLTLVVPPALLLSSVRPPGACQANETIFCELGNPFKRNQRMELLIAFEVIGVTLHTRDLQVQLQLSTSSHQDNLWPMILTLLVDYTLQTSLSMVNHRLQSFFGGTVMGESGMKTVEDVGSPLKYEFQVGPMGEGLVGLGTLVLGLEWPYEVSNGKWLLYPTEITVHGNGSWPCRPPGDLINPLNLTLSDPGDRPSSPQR
# T1 sequence (P26006 873-1051 limits assumed): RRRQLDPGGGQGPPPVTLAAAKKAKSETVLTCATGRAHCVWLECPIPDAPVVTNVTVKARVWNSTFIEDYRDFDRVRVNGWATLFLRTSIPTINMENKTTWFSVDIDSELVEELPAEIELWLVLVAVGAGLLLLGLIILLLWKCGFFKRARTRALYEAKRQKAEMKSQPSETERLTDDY
# T1 sequence (P05556 21-798): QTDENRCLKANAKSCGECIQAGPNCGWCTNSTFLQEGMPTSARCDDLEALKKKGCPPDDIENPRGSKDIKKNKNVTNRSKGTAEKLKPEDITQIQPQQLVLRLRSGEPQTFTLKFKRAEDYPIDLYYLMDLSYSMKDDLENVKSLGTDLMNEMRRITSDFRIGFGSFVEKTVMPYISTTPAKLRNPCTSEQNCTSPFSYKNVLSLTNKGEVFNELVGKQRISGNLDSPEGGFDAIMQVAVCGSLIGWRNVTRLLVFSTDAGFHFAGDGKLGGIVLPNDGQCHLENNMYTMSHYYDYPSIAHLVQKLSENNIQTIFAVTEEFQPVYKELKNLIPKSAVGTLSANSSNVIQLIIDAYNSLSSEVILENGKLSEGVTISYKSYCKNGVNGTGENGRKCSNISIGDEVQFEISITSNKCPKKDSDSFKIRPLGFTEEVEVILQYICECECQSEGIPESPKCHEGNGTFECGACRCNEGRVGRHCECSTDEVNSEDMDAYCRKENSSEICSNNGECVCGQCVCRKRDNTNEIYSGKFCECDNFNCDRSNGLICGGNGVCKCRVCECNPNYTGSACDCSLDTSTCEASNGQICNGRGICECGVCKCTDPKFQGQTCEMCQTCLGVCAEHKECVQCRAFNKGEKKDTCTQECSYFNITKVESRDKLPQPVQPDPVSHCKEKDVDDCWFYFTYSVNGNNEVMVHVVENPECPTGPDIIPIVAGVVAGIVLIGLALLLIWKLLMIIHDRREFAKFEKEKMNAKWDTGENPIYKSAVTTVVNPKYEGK
# Description: (§1) The binding capability of peptides or peptidomimectis, of synthetic compounds according to the invention to different cell lines displaying particular targets was investigated by using flow cytometry. Detached cells were incubated with biotinylated peptide/peptidomimetic or biotinylated synthetic compound in blocking buffer for at least 30 min of ice. The cells were washed twice with washing buffer followed by incubation with streptavidin labeled with the Peridinin-chlorophyll protein PerCP-Cy5.5 (BD Biosciences) for 15 minutes on ice. After one additional wash step, samples were analyzed using FACS Canto (at least 10,000 cells per sample were counted) for cells which have bound the biotinylated reagent plus the streptavidin-PerCP-Cy5.5. Overlay histograms of cells incubated with peptide or control peptide were generated and the geometrical mean fluorescence of each sample was determined in FloJo. The EC50 measurements were calculated using Graph Prism software.
# (§2) The following cell lines were used. The presence or absence of the surface antigens α3 Integrin and αvβ6 Integrin has been verified by corresponding antibody tests: […]
# α3 Integrin [2] = experiment: as above; design: species or system human; settings: FIG. 8; 200 nM biotinylated binder; K 562 does not express α3 Integrin
# Description: as §1, §2
# αvβ6 Integrin [3] = target: T2, αvβ6 Integrin (Homo sapiens, UniProt P06756+P18564); experiment: FACS analysis of cell binding, binder targeting αvβ6 Integrin; settings: FIG. 9, 10 nM biotinylated binder, vs scrambled variant
# T2 construct: The presence or absence of the surface antigens α3 Integrin and αvβ6 Integrin has been verified by corresponding antibody tests; endogenous in cells
# T2 sequence (P06756 31-889 limits assumed): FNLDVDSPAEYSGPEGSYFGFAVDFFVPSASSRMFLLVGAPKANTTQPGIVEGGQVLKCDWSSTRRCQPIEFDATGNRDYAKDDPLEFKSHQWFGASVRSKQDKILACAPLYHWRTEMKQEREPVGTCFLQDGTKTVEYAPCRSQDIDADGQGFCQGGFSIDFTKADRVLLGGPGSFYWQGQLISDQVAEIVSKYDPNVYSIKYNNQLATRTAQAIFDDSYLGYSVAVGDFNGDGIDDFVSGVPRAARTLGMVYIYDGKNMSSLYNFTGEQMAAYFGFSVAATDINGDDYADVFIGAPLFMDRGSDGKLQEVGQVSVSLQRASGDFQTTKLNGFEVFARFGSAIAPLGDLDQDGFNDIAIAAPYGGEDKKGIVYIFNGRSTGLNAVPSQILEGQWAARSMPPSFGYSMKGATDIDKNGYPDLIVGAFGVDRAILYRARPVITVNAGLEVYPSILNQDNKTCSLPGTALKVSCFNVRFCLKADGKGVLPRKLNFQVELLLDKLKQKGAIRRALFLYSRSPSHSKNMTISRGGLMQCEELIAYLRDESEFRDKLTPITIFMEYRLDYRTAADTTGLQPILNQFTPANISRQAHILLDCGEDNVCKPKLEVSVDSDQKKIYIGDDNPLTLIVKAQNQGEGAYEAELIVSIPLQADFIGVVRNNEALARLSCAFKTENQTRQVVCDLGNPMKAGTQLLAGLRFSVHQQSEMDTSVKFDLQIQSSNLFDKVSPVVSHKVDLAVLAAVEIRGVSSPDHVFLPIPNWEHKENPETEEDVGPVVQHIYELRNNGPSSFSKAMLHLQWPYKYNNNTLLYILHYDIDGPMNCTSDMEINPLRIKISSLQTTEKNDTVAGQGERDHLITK
# T2 sequence (P06756 891-1048 limits assumed): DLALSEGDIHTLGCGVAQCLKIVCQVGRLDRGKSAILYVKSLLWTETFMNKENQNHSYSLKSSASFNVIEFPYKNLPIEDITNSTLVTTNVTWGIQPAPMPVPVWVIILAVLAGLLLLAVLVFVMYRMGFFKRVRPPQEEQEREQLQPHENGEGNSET
# T2 sequence (P18564 22-788): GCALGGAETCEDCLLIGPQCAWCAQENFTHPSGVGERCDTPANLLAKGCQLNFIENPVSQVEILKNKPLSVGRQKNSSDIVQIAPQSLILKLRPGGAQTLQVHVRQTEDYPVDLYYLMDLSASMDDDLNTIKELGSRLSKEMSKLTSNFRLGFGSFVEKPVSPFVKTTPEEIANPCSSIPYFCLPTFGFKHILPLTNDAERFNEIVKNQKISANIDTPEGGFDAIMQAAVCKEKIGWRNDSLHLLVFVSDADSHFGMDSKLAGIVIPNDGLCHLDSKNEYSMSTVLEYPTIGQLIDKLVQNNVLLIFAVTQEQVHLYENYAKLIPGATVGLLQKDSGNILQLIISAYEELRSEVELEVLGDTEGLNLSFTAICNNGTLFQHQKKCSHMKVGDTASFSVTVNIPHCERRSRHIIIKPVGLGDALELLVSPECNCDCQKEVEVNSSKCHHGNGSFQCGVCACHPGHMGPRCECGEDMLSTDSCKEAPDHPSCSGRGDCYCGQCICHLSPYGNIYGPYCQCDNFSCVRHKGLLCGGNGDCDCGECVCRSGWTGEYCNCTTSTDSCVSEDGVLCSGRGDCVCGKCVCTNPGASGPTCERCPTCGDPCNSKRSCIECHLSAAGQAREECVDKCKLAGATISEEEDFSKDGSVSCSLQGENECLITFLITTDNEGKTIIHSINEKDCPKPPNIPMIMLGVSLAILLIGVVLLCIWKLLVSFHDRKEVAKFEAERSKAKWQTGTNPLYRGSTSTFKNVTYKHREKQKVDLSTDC
# Description: as §1, §2
# αvβ6 Integrin [4] = experiment: as above; design: species or system human; settings: FIG. 9, 10 nM biotinylated binder
# Description: as §1, §2
# human leukocytes [5] = experiment: Chemotaxis assay; format: cell-based; settings: FIG. 4A; in vitro in human leukocytes; compared with fMLF (devoid of an Ile residue)
# Description: To test for the chemotactic effect of effector peptides or peptidomimetics, human leukocytes were re-suspended in Hanks' Buffered Saline Solution (HBSS, without Ca^2+, Mg^2+) with 10 mM Hepes pH 7.4 and 0.3% BSA at 10*10^6 cells/ml. Cells were pre-warmed at 37° C. for 20 min. After adding the effector dilutions in the above buffer into wells of 24-well plates (800 μl/well), a Millicell culture plate insert with 5 μm pore size was placed in each well, followed by immediate addition of 200 μl (2 million) leukocytes. The plate was incubated at 37° C. for 45 min. The total number of leukocytes that migrated to the bottom chamber was determined using a Neubauer chamber, or the numbers of transmigrated monocytes, neutrophils and lymphocytes were determined by flow cytometry (distinguish cell populations in FCS/SSC plot).
# human leukocytes [6] = experiment: DHR 123 oxidation assay (oxidative burst), human leukocytes; format: cell-based; settings: FIG. 4B; in vitro in human leukocytes; compared with fMLF
# Description: (§3) Oxidative burst in neutrophils form part of the cells host defense, and can be evoked, e.g., by the N-formyl peptide fMLP. (Kim et al, 2003). Oxidation assays are thus a useful tool to determine the potency of formyl peptides. The oxidative burst activity of neutrophils caused by incubation with effector peptides or peptidomimetics was measured by flow cytometry, quantifying the intracellular conversion of dihydrorhodamine 123 (DHR) to rhodamine. In brief, human or murine leukocytes (1.25*10^6 cells/ml) were incubated with catalase, cytochalasin B (Sigma) and DHR (Invitrogen) in Hanks' Buffered Saline Solution (HBSS, without Ca^2+, Mg^2+) with 10 mM Hepes pH 7.4, 5 mM EDTA and 0.3% BSA at 37° C. for 10 minutes followed by incubation with the different effector peptides or peptidomimetics at different concentrations for 15 minutes at 37° C. PMA was used as a positive control.
# (§4) All samples were fixed in formaldehyde and kept on ice until analysis using FACS Canto (at least 20,000 cells per sample were counted). Neutrophils were identified based on forward and side scatter characteristics. Analysis of DHR fluorescence was performed by side scatter/FL2 dot plots. Percent of DHR-positive cells were identified by gating on a negative (unstimulated) control sample.
# mouse leukocytes = experiment: DHR 123 oxidation assay (oxidative burst), mouse leukocytes; format: cell-based; settings: FIG. 5; in vitro in mouse leukocytes; compared with fMLF
# Description: as §3, §4
substance,measurement,setting,value
"SEQ ID NO: 1: peptidomimetic binder cdGY(3-NO2)GHypNc targeting α3 Integrin; tested biotinylated ([dC][dD]G[Tyr(3-NO2)]G[Hyp]N[dC]; cysteine pairing not given here; also: tested biotinylated, site not given here)",binding to cell line A431,α3 Integrin [1]; A431 expresses α3 Integrin,binds
same,binding to cell line PC3,α3 Integrin [1]; PC3 expresses α3 Integrin,binds
same,binding to cell line U87-MG,α3 Integrin [1]; U87-MG expresses α3 Integrin,binds
same,binding to cell line K 562,α3 Integrin [2],do not bind
"SEQ ID NO: 2: peptide binder RGDLATLRQL targeting αvβ6 Integrin; tested biotinylated (also: biotinylated, place not given here)",binding to cell line A431,αvβ6 Integrin [3]; A431 expresses αvβ6 Integrin,binds
same,binding to cell line HT-29,αvβ6 Integrin [3]; HT-29 expresses αvβ6 Integrin,binds
same,binding to cell line PC-3,αvβ6 Integrin [4]; PC-3 does not express αvβ6 Integrin,do not bind
same,binding to cell line U87-MG,αvβ6 Integrin [4]; U87-MG does not express αvβ6 Integrin,do not bind
"fMIFL: N-formyl methionine effector peptide fMIFL, comprises isoleucin; fM=N-formylmethionine, remaining letters L-amino acids (For-MIFL)",chemotactic effect,human leukocytes [5],significantly better chemotactic effect
same,activation of oxidative bursts,human leukocytes [6],much better activation of oxidative bursts
same,activation of oxidative bursts,mouse leukocytes,much better activation of oxidative bursts
